Measurements reported in the supplement of paper PMC13380429.

Assays:
Details in all cases: 72 h
[1] = system: HepG2; experiment: drug sensitivity score (DSS) for viability; higher = more toxic; extreme values may be limits of the assay
[2] = system: U2OS; experiment: as above
[3] = system: Caco-2; experiment: as above
[4] = system: Vero E6; experiment: as above
[5] = system: HepG2; experiment: relative viability EC50 (midpoint between 100% and the lowest measured viability); higher = less toxic
[6] = system: U2OS; experiment: as above
[7] = system: Caco-2; experiment: as above
[8] = system: Vero E6; experiment: as above
[9] = system: HepG2; experiment: cell viability relative to DMSO; higher = less toxic
[10] = system: U2OS; experiment: as above
[11] = system: Caco-2; experiment: as above
[12] = system: Vero E6; experiment: as above
[13] = system: Calu-3; experiment: drug sensitivity score (DSS) for viability; higher = more toxic; extreme values may be limits of the assay
[14] = system: Calu-3; experiment: relative viability EC50 (midpoint between 100% and the lowest measured viability); higher = less toxic
[15] = system: Calu-3; experiment: cell viability relative to DMSO; higher = less toxic

SMILES | drug sensitivity score [1] | drug sensitivity score [2] | drug sensitivity score [3] | drug sensitivity score [4] | relative viability EC50 [5] | relative viability EC50 [6] | relative viability EC50 [7] | relative viability EC50 [8] | cell viability ([9]; 1 nM) | cell viability ([9]; 10 nM) | cell viability ([9]; 100 nM) | cell viability ([9]; 1000 nM) | cell viability ([9]; 10000 nM) | cell viability ([10]; 1 nM) | cell viability ([10]; 10 nM) | cell viability ([10]; 100 nM) | cell viability ([10]; 1000 nM) | cell viability ([10]; 10000 nM) | cell viability ([11]; 1 nM) | cell viability ([11]; 10 nM) | cell viability ([11]; 100 nM) | cell viability ([11]; 1000 nM) | cell viability ([11]; 10000 nM) | cell viability ([12]; 1 nM) | cell viability ([12]; 10 nM) | cell viability ([12]; 100 nM) | cell viability ([12]; 1000 nM) | cell viability ([12]; 10000 nM) | drug sensitivity score [13] | relative viability EC50 [14] | cell viability ([15]; 1 nM) | cell viability ([15]; 10 nM) | cell viability ([15]; 100 nM) | cell viability ([15]; 1000 nM) | cell viability ([15]; 10000 nM)
CC/C=C(\C(=O)N[C@@H]1C(=O)N2C(C(=O)OCOC(=O)C(C)(C)C)=C(COC(N)=O)CS[C@H]12)c1csc(N)n1 [cefcapene-pivoxil] | 3.3 | 0 | 0 | 0 | > 10 µM | > 10 µM | > 10 µM | > 10 µM | 107% | 93.8% | 89.7% | 78.8% | 86.4% | 97.2% | 106% | 98.5% | 103% | 103% | 104% | 101% | 117% | 113% | 94.4% | 109% | 94.7% | 110% | 111% | 102% | – | – | – | – | – | – | –
CO/N=C(\C(=O)N[C@@H]1C(=O)N2C(C(=O)O)=C(CSc3nc(=O)c(O)nn3C)CS[C@H]12)c1csc(N)n1 [ceftriaxone] | 0 | 0 | – | 0 | > 10 µM | > 10 µM | – | > 10 µM | 93% | 96.7% | 96.5% | 97.3% | 97.9% | 100% | 94.2% | 94.5% | 95.7% | 97.2% | – | – | – | – | – | 96.6% | 102% | 96% | 106% | 95.5% | 0 | > 10 µM | 92.7% | 94.5% | 95.2% | 92% | 105%
C/C(=C\c1csc(C)n1)[C@@H]1C[C@@H]2O[C@]2(C)CCC[C@H](C)[C@H](O)[C@@H](C)C(=O)C(C)(C)[C@@H](O)CC(=O)O1 [epothilone-B] | 37.2 | 33.1 | 24 | 29.5 | < 0.001 µM | < 0.001 µM | 0.0016 µM | 0.0026 µM | 52.3% | 29.7% | 18.4% | 19.8% | 32% | 50.3% | 39.9% | 23.9% | 30.7% | 44.3% | 79.8% | 54.2% | 47.6% | 52.8% | 50.6% | 77.6% | 48.9% | 29.9% | 35.7% | 45.4% | 19 | – | 91.8% | 66% | 53.8% | 54.7% | 59.3%
C=C1CC[C@H](O)C/C1=C/C=C1\CCC[C@]2(C)[C@@H]([C@H](C)/C=C/[C@H](C)C(C)C)CC[C@@H]12 [ergocalciferol] | 0 | 0 | – | 0 | > 10 µM | > 10 µM | – | > 10 µM | 114% | 99.3% | 112% | 97.5% | 93% | 99.3% | 99.6% | 96.2% | 100% | 94.3% | – | – | – | – | – | 102% | 105% | 96.2% | 93.6% | 101% | 0 | > 10 µM | 86.5% | 89.2% | 80.2% | 108% | 104%
CC(C)OC(=O)CNC(=O)[C@H](CS)NC(=O)CC[C@H](N)C(=O)O [glutathione-monoisopropyl-ester] | 0 | – | 0 | 0 | > 10 µM | – | > 10 µM | > 10 µM | 102% | 103% | 105% | 101% | 97.3% | – | – | – | – | – | 95.7% | 103% | 96.2% | 103% | 96.3% | 99.3% | 103% | 99.5% | 99.7% | 100% | – | – | – | – | – | – | –
NC(=O)CCCCC1CCSS1 (stereo unspecified) [lipoamide] | 0 | 0 | 0 | 0 | > 10 µM | > 10 µM | > 10 µM | > 10 µM | 88.4% | 108% | 104% | 102% | 90.9% | 102% | 99.8% | 99.1% | 98.2% | 98% | 110% | 90.3% | 92.4% | 97.9% | 102% | 103% | 99.2% | 102% | 106% | 99.2% | – | – | – | – | – | – | –
CN1C(=O)CC(C)(c2ccccc2)C1=O (stereo unspecified) [methsuximide] | 0 | 0 | 0 | 0 | > 10 µM | > 10 µM | > 10 µM | > 10 µM | 98.2% | 94.4% | 101% | 100% | 104% | 97.1% | 101% | 94% | 96.6% | 91.2% | 97.5% | 102% | 99.1% | 105% | 96.7% | 96.1% | 97.1% | 98.7% | 96.1% | 95.2% | – | – | – | – | – | – | –
CCCCCOc1ccc(-c2cc(-c3ccc(C(=O)N[C@H]4C[C@@H](O)[C@@H](O)NC(=O)[C@@H]5[C@@H](O)[C@@H](C)CN5C(=O)[C@H]([C@H](O)CC(N)=O)NC(=O)[C@H]([C@H](O)[C@@H](O)c5ccc(O)c(OS(=O)(=O)O)c5)NC(=O)[C@@H]5C[C@@H](O)CN5C(=O)[C@H]([C@@H](C)O)NC4=O)cc3)no2)cc1 [micafungin] | 0 | 0 | – | 0 | > 10 µM | > 10 µM | – | > 10 µM | 98.4% | 117% | 106% | 81.8% | 109% | 104% | 102% | 103% | 101% | 99.4% | – | – | – | – | – | 99.2% | 101% | 106% | 97.2% | 92.9% | 0 | > 10 µM | 106% | 108% | 98.3% | 99.4% | 115%
CCCCc1ccc2[nH]c(NC(=O)OC)nc2c1 [parbendazole] | 9.6 | 8.8 | 8.3 | 12 | 0.641 µM | 0.676 µM | 0.353 µM | 0.38 µM | 82.9% | 98.3% | 98.2% | 51.7% | 31.5% | 96.4% | 98% | 93.2% | 59.2% | 32.7% | 104% | 94.7% | 91.7% | 59.9% | 48.9% | 96% | 98.2% | 94.5% | 39% | 28.8% | 5.9 | – | 103% | 96.1% | 96.9% | 69.8% | 57.2%
Fc1ccc(CNc2ncnc3ccc(F)cc23)cc1 [spautin-1] | 5.9 | 0 | 2.4 | 0.1 | 1.98 µM | > 10 µM | – | > 10 µM | 99.2% | 102% | 104% | 88.8% | 26.3% | 92.2% | 97.4% | 101% | 95.5% | 96.7% | 99.7% | 98.9% | 96% | 91% | 69.3% | 102% | 96% | 96.6% | 89.5% | 89.1% | 2.8 | – | 97.3% | 90.2% | 100% | 88.6% | 70.1%
O=C1C[C@@H]2OCC=C3CN4CC[C@]56c7ccccc7N1[C@H]5[C@H]2[C@H]3C[C@H]46 [strychnine] | 1.7 | 0 | 3.7 | 0.9 | > 10 µM | > 10 µM | > 10 µM | > 10 µM | 113% | 93.7% | 106% | 83.1% | 96.3% | 97.2% | 101% | 96.8% | 103% | 95.8% | 97.8% | 91.1% | 83% | 85.6% | 90.2% | 102% | 98.8% | 98.3% | 87.1% | 88.7% | – | – | – | – | – | – | –
O=C1c2ccccc2-n2c1nc1ccccc1c2=O [tryptanthrin] | 3.5 | 0 | 0.4 | 0 | 2.94 µM | > 10 µM | > 10 µM | > 10 µM | 88.7% | 87.5% | 90.7% | 98.2% | 40.5% | 96.5% | 97.7% | 101% | 102% | 97.7% | 101% | 107% | 110% | 104% | 79.7% | 104% | 99.6% | 101% | 95.7% | 96.9% | – | – | – | – | – | – | –
